In ChEMBL document CHEMBL3045065, “Synthesis and analgesic effects of 2-(2-carboxyphenylsulfanyl)-N-(4-substitutedphenyl)acetamide derivatives” (Med Chem Res, 2011):

Assays:
Mus musculus [1] = assay: Toxicity in Mus musculus Swiss albino (mouse) assessed as mortality at 100 mg/kg, ip; assay type: organism-based; set-up: dose 100 mg/kg, route intraperitoneal; conditions: in vivo
Mus musculus [2] = assay: Analgesic activity in Mus musculus Swiss albino (mouse) assessed as paw licking and jumping latency at 100 mg/kg, ip measured after 30 min by hot plate test; assay type: functional; conditions: route intraperitoneal
Mus musculus [3] = assay: Neurotoxicity in Mus musculus Swiss albino (mouse) assessed as effect on vertical locomotory activity at 100 mg/kg, ip; assay type: toxicity, organism-based; set-up: dose 100 mg/kg, route intraperitoneal; conditions: in vivo
Mus musculus [4] = assay: Neurotoxicity in Mus musculus Swiss albino (mouse) assessed as falling latency at 100 mg/kg, ip by Rota-Rod test; assay type: toxicity, organism-based; set-up: dose 100 mg/kg, route intraperitoneal; conditions: in vivo
Mus musculus [5] = assay: Neurotoxicity in Mus musculus Swiss albino (mouse) assessed as effect on horizontal locomotory activity at 100 mg/kg, ip; assay type: toxicity, organism-based; set-up: dose 100 mg/kg, route intraperitoneal; conditions: in vivo
Mus musculus [6] = assay: Analgesic activity in Mus musculus Swiss albino (mouse) at 100 mg/kg, ip measured after 30 min by tail clip test; assay type: functional; conditions: route intraperitoneal
Mus musculus [7] = assay: Analgesic activity in Mus musculus Swiss albino (mouse) assessed as inhibition of acetic acid-induced writhing at 100 mg/kg, ip measured after 30 min relative to control; assay type: functional; conditions: 0.5 h, route intraperitoneal

O=C(CSc1ccccc1C(=O)O)Nc1ccccc1
Activity (Mus musculus [1]): Non-toxic
Activity (Mus musculus [2]): 79.98%
Activity (Mus musculus [3]): Non-toxic
Activity (Mus musculus [4]): Non-toxic
Activity (Mus musculus [5]): Non-toxic
MPE (Mus musculus [6]): 52.1%
inhibition in vivo at 100 mg/kg (Mus musculus [7]): 54.8%

O=C(CSc1ccccc1C(=O)O)Nc1ccc(Cl)cc1
Activity (Mus musculus [1]): Non-toxic
Activity (Mus musculus [2]): 65.73%
Activity (Mus musculus [3]): Non-toxic
Activity (Mus musculus [4]): Non-toxic
Activity (Mus musculus [5]): Non-toxic
MPE (Mus musculus [6]): 43.94%
inhibition in vivo at 100 mg/kg (Mus musculus [7]): 49.7%

O=C(CSc1ccccc1C(=O)O)Nc1ccc(Br)cc1
Activity (Mus musculus [1]): Non-toxic
Activity (Mus musculus [2]): 8.48%
Activity (Mus musculus [3]): Non-toxic
Activity (Mus musculus [4]): Non-toxic
Activity (Mus musculus [5]): Non-toxic
MPE (Mus musculus [6]): 13.71%
inhibition in vivo at 100 mg/kg (Mus musculus [7]): 9.04%

Cc1ccc(NC(=O)CSc2ccccc2C(=O)O)cc1
Activity (Mus musculus [1]): Non-toxic
Activity (Mus musculus [2]): 89.37%
Activity (Mus musculus [3]): Non-toxic
Activity (Mus musculus [4]): Non-toxic
Activity (Mus musculus [5]): Non-toxic
MPE (Mus musculus [6]): 72.31%
inhibition in vivo at 100 mg/kg (Mus musculus [7]): 76.3%

COc1ccc(NC(=O)CSc2ccccc2C(=O)O)cc1
Activity (Mus musculus [1]): Non-toxic
Activity (Mus musculus [2]): 35.12%
Activity (Mus musculus [3]): Non-toxic
Activity (Mus musculus [4]): Non-toxic
Activity (Mus musculus [5]): Non-toxic
MPE (Mus musculus [6]): 25.01%
inhibition in vivo at 100 mg/kg (Mus musculus [7]): 27.7%

O=C(CSc1ccccc1C(=O)O)Nc1ccc(C(=O)O)cc1
Activity (Mus musculus [1]): Non-toxic
Activity (Mus musculus [2]): 18.07%
Activity (Mus musculus [3]): Non-toxic
Activity (Mus musculus [4]): Non-toxic
Activity (Mus musculus [5]): Non-toxic
MPE (Mus musculus [6]): 17.05%
inhibition in vivo at 100 mg/kg (Mus musculus [7]): 20.3%

CC(=O)Nc1ccc(O)cc1 [ACETAMINOPHEN]
Activity (Mus musculus [1]): Non-toxic
Activity (Mus musculus [2]): 51.61%
Activity (Mus musculus [3]): Non-toxic
Activity (Mus musculus [4]): Non-toxic
Activity (Mus musculus [5]): Non-toxic
inhibition in vivo at 100 mg/kg (Mus musculus [7]): 29.4%

O=C(O)c1ccccc1S [THIOSALICYLIC ACID]
Activity (Mus musculus [1]): Non-toxic
Activity (Mus musculus [2]): 62.49%
Activity (Mus musculus [3]): Non-toxic
Activity (Mus musculus [4]): Non-toxic
Activity (Mus musculus [5]): Non-toxic
MPE (Mus musculus [6]): 40.37%
inhibition in vivo at 100 mg/kg (Mus musculus [7]): 33.9%
